# Where two headings read alike, the source gives them in different places.
# Tests used:
# hCA XII = target: T1, hCA XII (Homo sapiens, UniProt O43570); assay: stopped-flow CO2 hydrase assay, hCA XII; format: biochemical; conditions: for Selectivity index (SI) (KI off-target CA/KI target CA) Towards hCA XII: ratio of KI for hCA I and II relative to hCA XII; for Ki: stopped-flow, incubation time of 6 h, mean of three assays, read-out: KI CA XII
# T1 construct: made in house
# Experimental: (§1) The newly synthesised MPCs (3 and 5a–o) were assessed for their CA inhibition activity employing the stopped-flow CO2 hydrase assay[29] for constitutional hCA (I/II) isoforms and cancer-linked hCA (IX/XII) isoforms.
# (§2) The CA inhibition activity for the herein reported MPC derivatives was evaluated against the hCA isoforms I, II, IX, and XII using stopped-flow CO2 hydrase test[7]^,[33–36] (see the Supplementary Material).
# (§3) Carbonic anhydrase inhibition assay
# (§4) The carbonic anhydrase catalyzed CO2 hydration actions for all coumarin-based […]
# (§5) Photophysics stopped-flow. The enzymes are recombinant proteins prepared in our lab. Phenol red (at a concentration of 0.2 mM) has been used as indicator, working at […]
# (§6) mM Na2SO4 (for maintaining constant the ionic strength), following the initial rates of the CA-catalyzed CO2 hydration reaction for a period of 10-100 s. The CO2 concentrations ranged from 1.7 to 17 mM for the determination of the kinetic parameters and inhibition constants. For each inhibitor at least six traces of the initial 5-10% of the reaction have been used for determining the initial velocity. The uncatalyzed rates were determined in the same manner and subtracted from the total observed rates. Stock solutions of inhibitor (0.1 mM) were prepared in distilled-deionized water and dilutions up to 0.01 nM were done thereafter with the assay buffer. Inhibitor and enzyme solutions were preincubated together for 6 hrs. at room temperature prior to assay, in order to allow for the formation of the E-I complex. The inhibition constants were obtained by non-linear least-squares methods using PRISM 3 and the Cheng-Prusoff equation, and represent the mean from at least three different
# hCA IX [1] = target: T2, hCA IX (Homo sapiens, UniProt Q16790); assay: stopped-flow CO2 hydrase assay, hCA IX; format: biochemical; conditions: for Selectivity index (SI) (KI off-target CA/KI target CA) Towards hCA IX: ratio of KI for hCA I and II relative to hCA IX; for Ki: stopped-flow, incubation time of 6 h, mean of three assays, read-out: KI CA IX; for fold decreased inhibitory activity towards hCA IX: relative to phenyl analogue 5a
# T2 construct: made in house
# Experimental: as §1, §2, §3, §4, §5, §6
# hCA II [2] = target: T3, hCA II (Homo sapiens, UniProt P00918); assay: stopped-flow CO2 hydrase assay, hCA II; format: biochemical; conditions: incubation time of 6 h, mean of three assays, read-out: KI CA II
# T3 construct: made in house
# Experimental: as §1, §2, §3, §4, §5, §6
# hCA I [3] = target: T4, hCA I (Homo sapiens, UniProt P00915); assay: stopped-flow CO2 hydrase assay, hCA I; format: biochemical
# T4 construct: made in house
# Experimental: as §1, §2, §3, §4, §5, §6
# hCA I [4] = target: T4, hCA I; conditions: Figure 1; read-out: hCA I inhibition; cited from earlier work
# hCA II [5] = target: T3, hCA II; conditions: Figure 1; read-out: hCA II inhibition; cited from earlier work
# hCA IX [6] = target: T2, hCA IX; conditions: Figure 1; read-out: hCA IX inhibition; cited from earlier work
# MDA-MB-435 = assay: NCI single (10 µM) dose SRB screening, MDA-MB-435; format: cell-based, human; conditions: 10 µM single dose, MDA-MB-435, Melanoma
# Experimental: (§7) Following NCI protocol, sixteen MPCs were screened for their potential in vitro anticancer effects against human 59 cancer cell panels including prostate, leukaemia melanoma, colon, breast, CNS, renal, NSCLC, and ovarian cancers by National Cancer Institute (USA)[30].
# (§8) The antiproliferative activities of MPC 3 and MPCs 5a–o were first evaluated in a 10 µM dose assay, with SRB assay used to determine cell survival and proliferation. […] The results of the cell growth inhibitory activities for MPCs 5g and 5l towards the different treated tumour cell lines were presented as GI% and presented in Table 3.
# (§9) The anticancer test was conducted using the methods of the Drug Evaluation Branch, National Cancer Institute, Bethesda, MD, using 59 human tumour cell lines derived from nine human tissues. The GI50, TGI, and LC50 dose-response parameters were calculated for each medication.
# MCF7 = assay: NCI single (10 µM) dose SRB screening, MCF7; format: cell-based, human; conditions: 10 µM single dose, MCF7, Breast cancer
# Experimental: as §7, §8, §9
# SNB-75 = assay: NCI single (10 µM) dose SRB screening, SNB-75; format: cell-based, human; conditions: 10 µM single dose, SNB-75, CNS cancer
# Experimental: as §7, §8, §9
# LOX IMVI = assay: NCI single (10 µM) dose SRB screening, LOX IMVI; format: cell-based, human; conditions: 10 µM single dose, Melanoma
# Experimental: as §7, §8, §9
# [7] = stopped-flow, incubation time of 6 h, mean of three assays, read-out: KI CA I
# T1 sequence (O43570 25-354): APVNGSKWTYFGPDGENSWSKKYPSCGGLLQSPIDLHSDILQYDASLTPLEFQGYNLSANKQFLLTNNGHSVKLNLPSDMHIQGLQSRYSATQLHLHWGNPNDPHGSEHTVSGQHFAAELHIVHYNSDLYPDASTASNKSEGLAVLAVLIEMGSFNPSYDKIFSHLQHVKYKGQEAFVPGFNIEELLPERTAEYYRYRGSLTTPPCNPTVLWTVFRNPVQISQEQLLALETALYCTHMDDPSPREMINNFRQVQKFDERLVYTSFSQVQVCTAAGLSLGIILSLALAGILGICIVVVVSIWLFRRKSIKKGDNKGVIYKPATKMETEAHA
# T4 sequence (P00915 whole entry): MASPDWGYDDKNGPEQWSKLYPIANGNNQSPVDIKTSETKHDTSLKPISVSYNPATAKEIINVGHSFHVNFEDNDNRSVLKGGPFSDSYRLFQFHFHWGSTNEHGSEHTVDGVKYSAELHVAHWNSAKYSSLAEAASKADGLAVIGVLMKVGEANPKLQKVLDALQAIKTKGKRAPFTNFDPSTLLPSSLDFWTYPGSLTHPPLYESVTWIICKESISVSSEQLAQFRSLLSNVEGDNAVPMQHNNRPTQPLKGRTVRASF
SMILES,melting point,Selectivity index (SI) (KI off-target CA/KI target CA) Towards hCA XII (hCA XII),Ki (hCA XII),Selectivity index (SI) (KI off-target CA/KI target CA) Towards hCA IX (hCA IX [1]),Ki (hCA IX [1]),Ki (hCA II [2]),Ki (hCA I [3]; [7]),fold decreased inhibitory activity towards hCA IX (hCA IX [1]),Ki (hCA I [3]),Ki (hCA I [4]),Ki (hCA II [5]),Ki (hCA IX [6]),GI % (MDA-MB-435),GI % (MCF7),GI % (SNB-75),GI % (LOX IMVI)
"Cc1nc(-c2cc3ccccc3oc2=O)ccc1C(=O)/C=C/c1ccc(Cl)cc1 [Compound 5c, 3-(5-[(2E)-3-(4-Chlorophenyl)prop-2-enoyl]-6-methylpyridin-2-yl)-2H-chromen-2-one]",223 to 225 °C,>52.63,1.9 µM,>17.24,5.8 µM,> 100 µM,> 100 µM,–,–,–,–,–,–,–,–,–
"CC(=O)c1ccc(-c2cc3ccccc3oc2=O)nc1C [Compound 3, 3-(5-acetyl-6-methylpyridin-2-yl)-2H-chromen-2-one]",–,>147.06,0.68 µM,>105.26,0.95 µM,> 100 µM,> 100 µM,–,–,–,–,–,–,–,–,–
"Cc1nc(-c2cc3ccccc3oc2=O)ccc1C(=O)/C=C/c1ccc2c(c1)OCO2 [Compound 5j, 3-(5-[(2E)-3-(2H-1,3-Benzodioxol-5-yl)prop-2-enoyl]-6-methylpyridin-2-yl)-2H-chromen-2-one]",178 to 180 °C,>14.71,6.8 µM,>18.87,5.3 µM,> 100 µM,> 100 µM,about 3.5 fold,–,–,–,–,–,–,–,–
"Cc1nc(-c2cc3ccccc3oc2=O)ccc1C(=O)/C=C/c1ccc([N+](=O)[O-])cc1 [Compound 5e, 3-(6-Methyl-5-[(2E)-3-(4-nitrophenyl)prop-2-enoyl]pyridin-2-yl)-2H-chromen-2-one]",202 to 204 °C,>9.17,10.9 µM,>6.10,16.4 µM,> 100 µM,> 100 µM,–,–,–,–,–,–,–,–,–
"COc1ccc(/C=C/C(=O)c2ccc(-c3cc4ccccc4oc3=O)nc2C)cc1 [Compound 5h, 3-(5-[(2E)-3-(4-Methoxyphenyl)prop-2-enoyl]-6-methylpyridin-2-yl)-2H-chromen-2-one]",174 to 175 °C,>35.71,2.8 µM,>9.34,10.7 µM,> 100 µM,> 100 µM,–,–,–,–,–,–,–,–,–
"Cc1nc(-c2cc3ccccc3oc2=O)ccc1C(=O)/C=C/c1cccc2ccccc12 [Compound 5k, 3-(6-Methyl-5-[(2E)-3-(naphthalen-1-yl)prop-2-enoyl]pyridin-2-yl)-2H-chromen-2-one]",204 to 206 °C,>4.67,21.4 µM,>2.71,36.9 µM,> 100 µM,> 100 µM,~23 fold,–,–,–,–,–,–,–,–
"Cc1nn(-c2ccccc2)cc1/C=C/C(=O)c1ccc(-c2cc3ccccc3oc2=O)nc1C [Compound 5o, 3-(6-Methyl-5-[(2E)-3–(3-methyl-1-phenyl-1H-pyrazol-4-yl)prop-2-enoyl]pyridin-2-yl)-2H-chromen-2-one]",204 to 206 °C,>5.62,17.8 µM,>5.15,19.4 µM,> 100 µM,> 100 µM,–,–,–,–,–,–,–,–,–
"Cc1nc(-c2cc3ccccc3oc2=O)ccc1C(=O)/C=C/c1cccs1 [Compound 5m, 3-(6-Methyl-5-[(2E)-3-(thiophen-2-yl)prop-2-enoyl]pyridin-2-yl)-2H-chromen-2-one]",–,–,–,–,–,> 100 µM,–,–,> 100 µM,–,–,–,–,–,–,–
O=c1ccc2cc(O)ccc2o1 [III],–,–,–,–,–,–,–,–,–,> 100 µM,> 100 µM,–,–,–,–,–
O=Cc1ccccc1OCc1cn(CCCOc2ccc3ccc(=O)oc3c2)nn1 [V],–,–,–,–,–,–,–,–,–,> 10 µM,–,0.13 µM,–,–,–,–
"COc1cc(/C=C/C(=O)c2ccc(-c3cc4ccccc4oc3=O)nc2C)cc(OC)c1OC [Compound 5i, 3-(6-Methyl-5-[(2E)-3-(3,4,5-trimethoxyphenyl)prop-2-enoyl]pyridin-2-yl)-2H-chromen-2-one]",186 to 188 °C,>7.75,12.9 µM,>3.65,27.4 µM,> 100 µM,> 100 µM,–,–,–,–,–,–,–,–,–
"Cc1nc(-c2cc3ccccc3oc2=O)ccc1C(=O)/C=C/c1ccccc1 [Compound 5a, 3-(6-Methyl-5-[(2E)-3-phenylprop-2-enoyl]pyridin-2-yl)-2H-chromen-2-one]",–,>19.61,5.1 µM,>66.67,1.5 µM,> 100 µM,> 100 µM,–,–,–,–,–,–,–,–,–
"Cc1nc(-c2cc3ccccc3oc2=O)ccc1C(=O)/C=C/c1ccc(N(C)C)cc1 [Compound 5f, 3-(5-[(2E)-3-[4-(Dimethylamino)phenyl]prop-2-enoyl]-6-methylpyridin-2-yl)-2H-chromen-2-one]",–,>14.92,6.7 µM,>11.76,8.5 µM,> 100 µM,> 100 µM,–,–,–,–,–,80%,–,–,–
"Cc1nc(-c2cc3ccccc3oc2=O)ccc1C(=O)/C=C/c1ccc(F)cc1 [Compound 5b, 3-(5-[(2E)-3-(4-Fluorophenyl)prop-2-enoyl]-6-methylpyridin-2-yl)-2H-chromen-2-one]",–,>37.04,2.7 µM,>29.41,3.4 µM,> 100 µM,> 100 µM,–,–,–,–,–,–,49%,39%,46%
"Cc1ccc(/C=C/C(=O)c2ccc(-c3cc4ccccc4oc3=O)nc2C)o1 [Compound 5n, 3-(6-Methyl-5-[(2E)-3–(5-methylfuran-2-yl)prop-2-enoyl]pyridin-2-yl)-2H-chromen-2-one]",–,>52.63,1.9 µM,>66.67,1.5 µM,> 100 µM,> 100 µM,–,–,–,–,–,–,40%,–,39%
O=C(Nc1ccc(Cl)cc1)c1cc2ccc(O)cc2oc1=O [IV],–,–,–,–,–,–,–,–,–,> 100 µM,> 100 µM,–,–,–,–,–
"Cc1ccc(/C=C/C(=O)c2ccc(-c3cc4ccccc4oc3=O)nc2C)cc1 [Compound 5d, 3-(6-Methyl-5-[(2E)-3-(4-methylphenyl)prop-2-enoyl]pyridin-2-yl)-2H-chromen-2-one]",206 to 208 °C,>12.19,8.2 µM,>23.25,4.3 µM,> 100 µM,> 100 µM,–,–,–,–,–,–,–,–,–

# Source: publication PMC9037210, “Novel 3-(6-methylpyridin-2-yl)coumarin-based chalcones as selective inhibitors of cancer-related carbonic anhydrases IX and XII endowed with anti-proliferative activity” (Journal of Enzyme Inhibition and Medicinal Chemistry, 2022)
